Assay results reported in article PMC10813393 (Biomolecules, 2023).

What was measured:
[1] = target: recombinant SARS-CoV-2 3CL^pro (Severe acute respiratory syndrome coronavirus 2, UniProt P0DTD1); assay: biochemical; assay type: biochemical; conditions: for inhibition of the enzymatic activity of 3CL^pro (in words): judged from IC50 values; for IC50: luminogenic substrate, 60 min, read-out: IC50 for inhibiting SARS-CoV-2 3CL^pro
[2] = in vitro; assay type: cell-based; conditions: African green monkey; VERO cells, 72 h exposure, CCK-8; read-out: Cytotoxicity (CC50)
Protocol: A CCK-8 assay (ab228554; Abcam, Cambridge, UK) was performed to evaluate the cytotoxicity of pure compounds. WST-8/CCK8 tetrazolium salt is reduced by cellular dehydrogenases to form an orange formazan product that is soluble in a tissue culture medium. The formazan produced is directly proportional to the number of living and metabolically active cells and is measured via absorbance at 460 nm. Therefore, VERO cells (2 × 10^4 cells/mL) were grown in 96-well microtiter plates at 37 °C in a 5% CO2 incubator for 24 h. Then, they were exposed to serial dilutions of L7OG CY, FA, and RA for 72 h and incubated with CCK8 tetrazolium salt for 4 h at 37 °C in a CO2 incubator. The absorbance was measured at 460 nm using a GloMax® Discover Microplate Reader (Promega, Madison, WI, USA), and the percentage of cellular viability was calculated and compared to untreated cells.
Commercially available cynarin (CY), rosmarinic acid (RA), folic acid (FA), and luteolin-7-O-glucuronide (L7OG) were used to prepare the respective stock solutions.
Specifically, L7OG was dissolved in DMSO to obtain a 5.5 mM solution, RA was dissolved in water to obtain an 8.0 mM solution, CY was dissolved in methanol to obtain a 4.7 mM solution, and FA was dissolved in ethanol to obtain an 8.7 mM solution.
Viability assay of natural compounds
VERO cells were exposed to different concentrations of L7OG, CY, FA, and RA for 72 h and incubated with CCK8 tetrazolium salt for 4 h before measuring the absorbance values in a microplate reader. The percentage of cellular viability was calculated and compared to untreated cells.
Figure S1. Cellular viability assay following treatment with different L7OG, CY, FA, and RA concentrations. VERO cells were incubated for […] with various concentrations of natural compounds, as reported in the material and methods section. Results represent the mean of three biologically independent experiments ± SD.
Table S1. Cytotoxicity (CC50) values (μM) of natural compounds on VERO cells.
(1 picture or pasted object on this page, not shown here)

[3] = target: recombinant SARS-CoV-2 PL^pro (GST-PL^pro) (Severe acute respiratory syndrome coronavirus 2, UniProt P0DTD1); assay: SARS-CoV-2 PLpro luminescent assay; assay type: biochemical; conditions: for inhibition of PL^pro (in words): judged from IC50 values; for IC50: luminogenic substrate, 60 min, read-out: IC50 for inhibiting SARS-CoV-2 PL^pro
[4] = test system: SARS-CoV-2 M^pro; conditions: cited from earlier work

Row | Structure (SMILES) | inhibition of the enzymatic activity of 3CL^pro (in words) [1] | IC50 [1] | CC50 at 72 h [2] | inhibition of PL^pro (in words) [3] | IC50 [3] | IC50 [4]
1 | O=C(/C=C/c1ccc(O)c(O)c1)O[C@@H]1C[C@@](OC(=O)/C=C/c2ccc(O)c(O)c2)(C(=O)O)C[C@@H](O)[C@@H]1O [CY, 1,3-dicaffeoylquinic acid] | no enzymatic inhibition | > 300 µM | 91.5 µM |  |  | 
2 | O=C(O)[C@H]1O[C@@H](Oc2cc(O)c3c(=O)cc(-c4ccc(O)c(O)c4)oc3c2)[C@H](O)[C@@H](O)[C@@H]1O [Compound L7OG, luteolin-7-O-glucuronide] | moderate inhibition | 170 µM | 55.7 µM | moderately inhibit | 153 µM | 
3 | Nc1nc(=O)c2nc(CNc3ccc(C(=O)N[C@@H](CCC(=O)O)C(=O)O)cc3)cnc2[nH]1 [FA, folic acid, reference compound] | moderate inhibition | 232 µM | 107 µM | moderately inhibit | 183 µM | 
4 | O=C(/C=C/c1ccc(O)c(O)c1)O[C@H](Cc1ccc(O)c(O)c1)C(=O)O [RA, rosmarinic acid] | no enzymatic inhibition | > 300 µM | 78.3 µM |  | > 300 µM | 6.84 µM
